“Also recorded” adds a separate entry of the source.
Experiments:
[1] = test system: Bomapin mRNA in peripheral human T-cells; test: Bomapin expression by quantitative RT-PCR in peripheral human T-cells; format: cell-based
Protocol: PCR was performed for 30 cycles. The ethidium bromide bands corresponding to the amplified bomapin transcripts were quantified by AlphaEase program (Alpha Innotech, San Leandro, Calif., USA). Each PCR tube contained four oligonucleotides primers, two for the Bomapin and two for the internal control (S-14).
Neurotransmitters, agonists and antagonists were added and the cells were incubated at 37 C°, 5% CO2 for up to 72 hours, as indicated for individual experiments. The incubated T-cells were then collected and used for further experimentation.
Total RNA was extracted by using Trizol RNA isolation reagent (Molecular Research Center, Cincinnati, Ohio) based on the acid guanidinium thiocyanate-phenol-chloroform extraction method, according to manufacturer recommendations. RT-PCR was used to amplify the levels of endogenous Bomapin mRNA that may be present in the peripheral human T-cells and in the Jurkat cells (a human mature leukemic cell line that phenotypically resembles resting human T lymphocytes). The expression of the ribosomal protein S-14, derived from the same tissue preparations, served as an internal control. Each reaction contained four oligonucleotides primers, two for Bomapin and two for the internal control S-14. PCR conditions were: cDNA equivalent to 50 ng RNA was amplified for 30 cycles, the annealing temperature was 60° C. and the final MgCl2 concentration was 2.5 mM. […]

[2] = test system: human T-cell lukemia (Jurkat) cells; test: Bomapin expression in Jurkat cells; format: cell-based
From the text: (§1) Total RNA was extracted by using Trizol RNA isolation reagent (Molecular Research Center, Cincinnati, Ohio) based on the acid guanidinium thiocyanate-phenol-chloroform extraction method, according to manufacturer recommendations. RT-PCR was used to amplify the levels of endogenous Bomapin mRNA that may be present in the peripheral human T-cells and in the Jurkat cells (a human mature leukemic cell line that phenotypically resembles resting human T lymphocytes). The expression of the ribosomal protein S-14, derived from the same tissue preparations, served as an internal control. Each reaction contained four oligonucleotides primers, two for Bomapin and two for the internal control S-14. PCR conditions were: cDNA equivalent to 50 ng RNA was amplified for 30 cycles, the annealing temperature was 60° C. and the final MgCl2 concentration was 2.5 mM. The Taq DNA polymerase used in this study was the BIO-X-ACT DNA polymerase (Bioline UK Ltd., London. UK). The PCR products were separated electrophoretically on a 1.5% agarose gel containing ethidium bromide, and visualized under UV light.

[3] = test system: resting human peripheral T-cells; test: Gene expression analysis with Atlas human cDNA expression array; format: cell-based; settings: Glutamate 10 nM, 72 hours, autoradiography and densitometry
From the text: FIGS. 1A-1D are tables illustrating the Glutamate-induced regulation of specific gene expression in the human T-cell, through analysis of gene expression using the atlas human cDNA expression array. […] The cDNA was hybridized to the atlas membranes according to the manual, and expression was visualized by autoradiography. […] Note the enhanced expression of T-cell genes such as Rapamycin-selective-25 KD Immunophilin (FKBP-25), Heat shock protein 40 (Hsp 40), Cathepsin E presursor, Carbonic anhydrase-related protein (carp) (ca-viii), peptidyl-glycine alpha-amidating monooxygenase presursor (pam), and axonemal dynein heavy chain (fragment) as well as of genes whose expression has been previously undetected in T cells such as Stimulator of Fe Transport (SFT), oviductal glycoprotein, Clathrin light chain, Protein Inhibitor of Activated STAT (PIAS) and Cartilage Intermediate Layer Protein (CILP) (FIG. 1A).
Hybridizations to the Atlas Human cDNA Expression Arrays membranes (Catalog No. 1.2 KIII (7850-1) and III (7855-1), Clontech Laboratories) were performed by Clonetech Laboratories, as described in the user manual. Analysis of the expression pattern of up and down regulated genes, as compared to that of untreated T-cells, was performed by Clontech, as described in their manual. […]

[4] = test system: cloned resting human Th2 cells (clone 401); test: Cytokine secretion by ELISA, resting cloned Th2 cells; format: cell-based; settings: 10^−8 M Glutamate, no antigen stimulation, versus untreated
Protocol: The results are expressed as pg/ml IL-4. Note the clear induction of IL-4 secretion in the Glutamate-treated cells, absent in the non-activated cells.
(§2) Human T-cell clones were prepared essentially as described by Besser M and Wank J (Besser M and Wank J, J Immunol 1999; 162:6303-306): Human PBMC were purified from whole blood by Ficoll gradient (Amersham Pharmacia Biotech, Freiburg, Germany). CD4^+ Th (T-helper) cells were isolated by using CD4 mAbs coupled to magnetic beads (Dynal, Hamburg, Germany). T cells were cultured at 1-2×10^6 cells/ml either in the presence of 1% PHA (Difco, Hamburg, Germany), 20 μg of anti-CD3 (OKT-3, Cilag, Sulzbach, Germany)-precoated plates in combination with IL-2 (20 U/ml) or IL-4 (100 U/ml), or with 100 ng/ml neurotrophins (Prepro, London, England), 20 U/ml IL-2 (Chiron, Ratingen, Germany), 100 U/ml IL-4 (Genzyme, Ruesselsheim, Germany) or 500 U/ml IFN-γ (Thomae, Bicherach an der Riss, Germany) alone. RPMI 1640 culture medium (Life Technologies, Eggenstein, Germany) was supplemented with 10% FCS (Life Technologies). […] Constitutive expression in immune cell bulk cultures was assessed immediately after cell separation, in cloned T lymphocytes after 3 days without further addition of IL-2.
(§3) Cytokine levels were measured in supernatants from Glutamate stimulated human T-cell cultured as described hereinabove. […]

[5] = test system: cloned resting human Th1 cells (clone 305); test: Cytokine secretion by ELISA, resting cloned Th1 cells; format: cell-based; settings: 10^−8 M Glutamate, versus untreated
Protocol: The results are expressed as pg/ml IL-10.
The results are expressed as pg/ml IL-4.
as §2, with “Technologies). Alloprimed PBMC were seeded at 0.4 cell/well on allogeneic specific feeder layer.” for “Technologies).”
as §3

[6] = test system: cloned human Th0 cells (clone 234); test: IFN-γ secretion by ELISA, activated (alloprimed) cloned Th0 cells; format: cell-based; settings: 20 hours, 10^−8M Glutamate plus mismatched allopriming B cells, versus antigen stimulation alone
Protocol: (§4) The results are expressed as pg/ml IFN-γ.
as §2, with “Technologies). Alloprimed PBMC were seeded at 0.4 cell/well on allogeneic specific feeder layer.” for “Technologies).”
as §3

[7] = test system: cloned human Th1 cells (clone 305); test: IFN-γ secretion by ELISA, activated (alloprimed) cloned Th1 cells; format: cell-based; settings: 20 hours, 10^−8M Glutamate plus mismatched allopriming B cells, versus antigen stimulation alone
Protocol: as §4
as §2, with “Technologies). Alloprimed PBMC were seeded at 0.4 cell/well on allogeneic specific feeder layer.” for “Technologies).”
as §3

normal human T-cells [8] = test: T-cell adhesion assay to fibronectin and laminin; format: cell-based; settings: for Blocking of the glutamate effect on integrin-mediated T-cell adhesion to laminin and fibronectin: Glutamate 10 nM
Protocol: Adhesion of untreated cells (BG) serves as a control. The results are expressed as the OD405 of the lysed, fibronectin- or laminin-adherent cells remaining after incubation and repeated washings.
Adhesion of T-cells to fibronectin and laminin was assayed as follows: normal human T-cells, purified from a fresh blood sample, were suspended (1×10^6 cells/ml) in rest medium (RPMI-1640, supplemented with 10% fetal calf serum (Sigma Chemical Co., St. Louis, Mo.), 1% antibiotics, 1% glutamine (Biological Industries, Beit Haemek, Israel) and 0.4% fungizone (GibcoBRL, Life Technologies Ltd., Paisley, Scotland)). […] Following incubation the cells were washed and resuspended in adhesion medium (RPMI-1640 supplemented with 0.1% bovine serum albumin (BSA, Sigma)). The cells were then seeded in 96 well flat-bottomed microtiter plates (Falcon, Becton Dickinson, Heidelberg, Germany, 1×10^5 cells/100 μl/well pre-coated with fibronectin or laminin (ICN Biomedicals Inc., Aurora, Ohio, […], 18 hours, 4° C.). Cells treated with phorbol 12-myristate 13-acetate (PMA, Sigma, 10 ng/ml) served as a positive control. The adhesion plates were incubated (37° C., 30 minutes, 7.5% CO2 humidified incubator), and then washed several times with PBS to remove non-adherent T-cells. The adhered cells were lysed by adding 60 μl/well of lysis-substrate solution (0.5% Triton X-100 in water mixed with an equal volume of 7.5 mM p-nitrophenol-N-acetyl-β-D-glucosaminide (Sigma, St. Louis, Mo.) in 0.1M citrate buffer pH=5.0). The plates were then incubated for 18 h in a CO2-devoid 37° C. incubator, and the reaction was stopped by the addition of […] of 50 mM glycine (Sigma, St Louis, Mo.) pH=10.4, containing 5 mM EDTA. The optical density (OD) was measured at 405 nm in a standard ELISA reader. The OD was converted to actual number of cells using a standard curve performed in each experiment.

normal human T-cells [9] = test: In-vitro chemotactic migration assay towards SDF-1; format: cell-based; settings: pre-treatment 66 hours, Glutamate 10^−8, fibronectin-coated filters
Protocol: FIG. 8 illustrates the Glutamate-induced migration of normal human T-cells towards the chemokine SDF-1. […] The cells in each experimental group were counted by FACSORT. The results are expressed as the number of fluorescently-labeled migrating Glutamate-treated T-cells vs. untreated controls (Untreated).
The cells were then washed, resuspended in adhesion medium, and added to the upper chambers (2×10^5 cells per 100 μl well) of a 24-well chemotaxis microchamber plate (Corning Inc., Corning, N.Y.). The two compartments of the microchambers were separated by polycarbonate filters ([…]) pre-coated with fibronectin or laminin ([…], about 1.5 hour, 37° C.). The lower chambers contained adhesion medium, which was supplemented, where indicated, with 100-250 ng/ml of the chemokine stromal cell-derived factor 1a (SDF-1a, Peprotech Inc., Rocky Hill, N.J.). The chemotaxis microchamber plate was incubated (3 hours, 37° C., 7.5% CO2 humidified incubator), the filter-containing upper chambers were gently removed and the contents of the individual lower chambers (containing the migrated cells) thoroughly mixed by pipetting and transferred into clean tubes. The number of cells in each tube was determined by FACSORT. Counting time for all the experimental groups was two minutes. […]

[10] = test system: GluR3 mRNA in normal human T-cells; test: GluR3 mRNA expression by RT-PCR; format: cell-based; settings: Glutamate 10 mM, 24 hours
From the text: FIGS. 10A and 10B are ethidium bromide stained gels of RT-PCR amplified cDNA from two similar experiments.
as §1, with “from cultured T-cells” for “by”, “RT-PCR was used to amplify the levels of endogenous Bomapin mRNA that may be present in the peripheral human T-cells and in the Jurkat cells (a human mature leukemic cell line that phenotypically resembles resting human T lymphocytes).” left out, “cell” for “tissue”, “GluR3” for “Bomapin”
GluR3—5′[…] 3′ (SEQ. ID NO: 8) and 5′ […] 3′ (SEQ ID NO: 9) corresponding to nucleotides 699-718 (sense) and 1312-1331 (antisense) respectively. The predicted size of the band is […].

[11] = test system: human peripheral lymphocytes; settings: cited from earlier work
[12] = 10^−8M Glutamate, 30 minutes, versus untreated (BG)
[13] = PHA or mAb activated human peripheral lymphocytes
[14] = CNQX added to Glutamate during incubation

SMILES: N[C@@H](CCC(=O)O)C(=O)O [Glutamate]
- Bomapin mRNA level versus untreated cells ([1]; Glutamate 10 nM, 72 hours, 30 PCR cycles, S-14 internal control): about 6 fold
- Bomapin expression [2]: induces expression
- Differential pattern of gene expression versus untreated cells [3]: induced the over expression of mRNA encoding for several genes; also recorded: down-regulated the expression of others
- IL-4 secretion [4]: strong release of IL-4
- IL-4 secretion ("forbidden" cytokine) [5]: significant induction
- IL-10 secretion ("forbidden" cytokine) [5]: significant induction
- IFN-γ secretion [6]: additional significant IFN-γ secretion
- IFN-γ secretion [7]: additional significant IFN-γ secretion
- T-cell adhesion to fibronectin (normal human T-cells [8]; [12]): significant increase
- T-cell adhesion to laminin (normal human T-cells [8]; [12]): significant increase
- Migration towards the chemoattractant SDF-1 (number of migrating cells) (normal human T-cells [9]): significantly augments
- RT-PCR-amplified GluR3 cDNA transcripts [10]: absence of RT-PCR-amplified GluR3 Glutamate receptor cDNA transcripts
- Ca++ influx and proliferation in activated lymphocytes [11, 13]: induction of Ca^++ influx and proliferation
- Effect on unstimulated, resting lymphocytes ([11]; high levels (1 mM) of Glutamate): no effect

SMILES: N#Cc1cc2[nH]c(=O)c(=O)[nH]c2cc1[N+](=O)[O-] [CNQX]
- Glutamate-induced Bomapin transcripts in the presence of antagonist ([1]; T-cells treated with Glutamate in the presence of CNQX): absence of detectable Bomapin transcripts
- Effect on Glutamate-mediated fibronectin binding (normal human T-cells [8]; [14]): strongly inhibits
- Effect on Glutamate-mediated laminin binding (normal human T-cells [8]; [14]): strongly inhibits
- Blocking of the glutamate effect on integrin-mediated T-cell adhesion to laminin and fibronectin (normal human T-cells [8]): blocked specifically

SMILES: O=C(O)c1cc(=O)c2ccccc2[nH]1 [KYNA, reference compound]
- Effect on Glutamate potentiation in activated lymphocytes [11, 13]: inhibition of Glutamate potentiation

SMILES: NS(=O)(=O)c1cccc2c1c([N+](=O)[O-])cc1nc(O)c(O)nc12 [NBQX, reference compound]
- Blocking of the glutamate effect on integrin-mediated T-cell adhesion to laminin and fibronectin (normal human T-cells [8]): blocked specifically
- Effect on Glutamate potentiation in activated lymphocytes [11, 13]: inhibition of Glutamate potentiation

Source: patent US20050214217A1 (priority 2004, published 2005)
